The text below walks through data of patent publication US12545659B2, “IRAK degraders and uses thereof” (Kymera Therapeutics, Inc., priority 2019, dated 2026).

In one assay the target is T1, IRAK4 (Homo sapiens, UniProt Q9NWZ3).
T1 construct: endogenous in cells; host or cells: OCI-LY10
T1 sequence (Q9NWZ3 1-460): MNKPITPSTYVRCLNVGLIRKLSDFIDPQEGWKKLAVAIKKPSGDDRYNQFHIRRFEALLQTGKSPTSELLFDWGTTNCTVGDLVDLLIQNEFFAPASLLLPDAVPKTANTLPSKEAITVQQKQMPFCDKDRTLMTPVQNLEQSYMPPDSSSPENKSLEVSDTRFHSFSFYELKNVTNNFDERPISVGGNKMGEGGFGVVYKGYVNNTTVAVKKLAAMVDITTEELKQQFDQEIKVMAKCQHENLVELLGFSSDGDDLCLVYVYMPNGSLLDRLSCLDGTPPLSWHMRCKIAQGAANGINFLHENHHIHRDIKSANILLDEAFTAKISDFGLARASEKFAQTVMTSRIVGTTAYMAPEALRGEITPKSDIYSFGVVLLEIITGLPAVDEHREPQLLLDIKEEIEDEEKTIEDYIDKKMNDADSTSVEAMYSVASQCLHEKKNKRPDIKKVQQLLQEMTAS
Put plainly: IRAK4 MSD Degradation in OCI-LY10. As to conditions: OCI-LY10 cells, 4 hrs incubation, read-out: IRAK4 degradation in OCI-LY10 at 4 hrs: DC50. Type of assay: cell-based. The procedure: Degradation of IRAK4 in OCI-LY10 was quantitatively measured using Meso Scale Discovery technology. […] Compounds were then added to the assay plates with a final top concentration of 1 to 10 μM in a 1:3 dilution series with total of 8 doses. The assay plates were then incubated for 4 to 24 hours at 37° C. under 5% C02. […] To prepare MSD assay plates (Meso Scale Discovery Catalog number L15XA-3), the plates were coated with […] capture antibody (mouse Anti-IRAK4 antibody [2H9], ab119942) in PBS, at 40 μL/well. […] Cell lysates were then added to MSD assay plates and the plates were incubated at room temperature for 1 hour. The plates were then washed 3 times with 150 μL/well TBST buffer and 25 μL/well primary detection antibody (rabbit Anti-IRAK4 antibody [Y279], from Abcam. Catalog number ab32511, 1 μg/mL). The assay plates were then incubated at room temperature for 1 hour, washed 3 times with 150 μL/well TBST buffer and 25 μL/well secondary detection antibody, SULFO-TAG anti-rabbit antibody were added (anti rabbit antibody from Meso Scale Discovery, Catalog number R32AB-1, 1 μg/mL). The assay plates were then incubated at room temperature for 1 hour, washed 3 times with 150 μL/well TBST buffer, and 150 μL/well MSD reading buffer (Meso Scale Discovery catalog number R92TC-2) was added. The plates were then analyzed by a MSD reader (Meso Scale Discovery, Model Quick Plex SQ 120). The data was then analyzed by software Prism 7.0 from GraphPad and the dose-depended IRAK4 degradation were fit using a three-parameter logistic equation to calculate DC50.
The letter codes for IRAK4 […] include: A (<0.05 μM); B (0.05-0.1 μM); C (0.1-0.5 μM); D (0.5-1.0 μM); and E (>1.0 μM).
For the compound `Cn1c(=O)n(C2CCC(=O)NC2=O)c2cccc(CC3CCN(C[C@H]4CC[C@H](n5cc6cc(NC(=O)c7cccc(C(F)(F)F)n7)c(C(F)F)cc6n5)CC4)CC3)c21` (stereo partly shown) [I-72], the DC50 was below 50 nM.

`Cn1c(=O)n(C2CCC(=O)NC2=O)c2cccc(C[C@H]3CC[C@H](N(C)C[C@H]4CC[C@H](n5cc6cc(NC(=O)c7cccc(C(F)(F)F)n7)c(C(F)F)cc6n5)CC4)CC3)c21` (stereo partly shown) [I-73]: the DC50 lay within 50 to 100 nM.

`CN(C[C@H]1CC[C@H](n2cc3cc(NC(=O)c4cccc(C(F)(F)F)n4)c(C(C)(C)O)cc3n2)CC1)C1CCC2(CC1)CC(Cc1cccc3c1n(C)c(=O)n3C1CCC(=O)NC1=O)C2` (stereo partly shown) [I-74]: the DC50 was below 50 nM.

On to `CN(C[C@H]1CC[C@H](n2cc3cc(NC(=O)c4cccc(C(F)(F)F)n4)c(C(C)(C)O)cc3n2)CC1)C1CCN(c2ccc3c(c2)n(C)c(=O)n3C2CCC(=O)NC2=O)CC1` (stereo partly shown) [I-75], for which the DC50 is below 50 nM.

For the compound `CN(C[C@H]1CC[C@H](n2cc3cc(NC(=O)c4cccc(C(F)(F)F)n4)c(C(C)(C)O)cc3n2)CC1)C1CCN(c2cccc3c2n(C)c(=O)n3C2CCC(=O)NC2=O)CC1` (stereo partly shown) [I-80], the DC50 was below 50 nM.

As to `Cn1c(=O)n(C2CCC(=O)NC2=O)c2cccc(CCC3CC4(CCN(C[C@H]5CC[C@H](n6cc7cc(NC(=O)c8ccccn8)c(C(C)(C)O)cc7n6)CC5)CC4)C3)c21` (stereo partly shown) [I-81], the DC50 was 50 to 100 nM.

With `CN(C[C@H]1CC[C@H](n2cc3cc(NC(=O)c4ccccn4)c(C(C)(C)O)cc3n2)CC1)C1CCN(c2ccc3c(c2)n(C)c(=O)n3C2CCC(=O)NC2=O)CC1` (stereo partly shown) [I-82], the DC50 is below 50 nM.

Turning to `CN(C[C@H]1CC[C@H](n2cc3cc(NC(=O)c4cccc(C(F)(F)F)n4)c(C(C)(C)O)cc3n2)CC1)C1CCN(c2ccc3c(c2)n(C2CCC(=O)NC2=O)c(=O)n3C)CC1` (stereo partly shown) [I-83], the DC50 was 500 to 1000 nM.

As for `CN(C[C@H]1CC[C@H](n2cc3cc(NC(=O)c4ccccn4)c(C(C)(C)O)cc3n2)CC1)C1CCN(c2cccc3c2n(C)c(=O)n3C2CCC(=O)NC2=O)CC1` (stereo partly shown) [I-84], the DC50 is below 50 nM.

With `CN(CCCO[C@H]1C[C@H](Cc2cccc3c2n(C)c(=O)n3C2CCC(=O)NC2=O)C1)C[C@H]1CC[C@H](n2cc3cc(NC(=O)c4cccc(C(F)(F)F)n4)c(C(C)(C)O)cc3n2)CC1` (stereo partly shown) [I-85], the DC50 is below 50 nM.

As to `CN(C[C@H]1CC[C@H](n2cc3cc(NC(=O)c4ccccn4)c(C(C)(C)O)cc3n2)CC1)C1CCN(c2ccc3c(c2)n(C2CCC(=O)NC2=O)c(=O)n3C)CC1` (stereo partly shown) [I-86], the DC50 lay in the range of 500 to 1000 nM.

`Cn1c(=O)n(C2CCC(=O)NC2=O)c2cccc(CCC3CCN(C[C@H]4CC[C@H](n5cc6cc(NC(=O)c7cccc(C(F)(F)F)n7)c(C(F)F)cc6n5)CC4)CC3)c21` (stereo partly shown) [I-94]: the DC50 was below 50 nM.

`Cn1c(=O)n(C2CCC(=O)NC2=O)c2cccc(C#CCC3CCN(C[C@H]4CC[C@H](n5cc6cc(NC(=O)c7cccc(C(F)(F)F)n7)c(C(F)F)cc6n5)CC4)CC3)c21` (stereo partly shown) [I-95]: the DC50 was 50 to 100 nM.

On to `COc1cc2nn([C@H]3CC[C@H](CN4CCN(CCc5cccc6c5n(C)c(=O)n6C5CCC(=O)NC5=O)CC4)CC3)cc2cc1NC(=O)c1cccc(C(F)(F)F)n1` (stereo partly shown) [I-96], for which the DC50 is below 50 nM.

In the case of `Cn1c(=O)n(C2CCC(=O)NC2=O)c2cccc(CCN3C[C@H]4CC[C@@H](C3)N4CC[C@H]3CC[C@H](n4cc5cc(NC(=O)c6cccc(C(F)(F)F)n6)c(C(C)(C)O)cc5n4)CC3)c21` (stereo partly shown) [I-97], the DC50 was below 50 nM.

For `COc1cc2nn([C@H]3CC[C@H](CN4CC(c5ccc6c(c5)n(C)c(=O)n6C5CCC(=O)NC5=O)C4)CC3)cc2cc1NC(=O)c1cccc(C(C)(C)F)n1` (stereo partly shown) [I-98], the DC50 is below 50 nM.

On to `Cn1c(=O)n(C2CCC(=O)NC2=O)c2ccc(C3CN(C[C@H]4CC[C@H](n5cc6cc(NC(=O)c7cccc(C(C)(C)F)n7)c(C(F)F)cc6n5)CC4)C3)cc21` (stereo partly shown) [I-99], for which the DC50 lay in the range of 50 to 100 nM.

For the compound `COc1cc2nn([C@H]3CC[C@H](CN4CCC(c5ccc6c(c5)n(C)c(=O)n6C5CCC(=O)NC5=O)CC4)CC3)cc2cc1NC(=O)c1cccc(C(C)(C)F)n1` (stereo partly shown) [I-100], the DC50 was below 50 nM.

With `Cn1c(=O)n(C2CCC(=O)NC2=O)c2ccc(C3CCN(C[C@H]4CC[C@H](n5cc6cc(NC(=O)c7cccc(C(C)(C)F)n7)c(C(F)F)cc6n5)CC4)CC3)cc21` (stereo partly shown) [I-101], the DC50 is below 50 nM.

Turning to `COc1cc2nn([C@H]3CC[C@H](CN4CCN(c5ccc6c(c5)n(C)c(=O)n6C5CCC(=O)NC5=O)CC4)CC3)cc2cc1NC(=O)c1cccc(C(F)(F)F)n1` (stereo partly shown) [I-102], the DC50 was below 50 nM.

Take `Cn1c(=O)n(C2CCC(=O)NC2=O)c2cccc(C3CCN(C[C@H]4CC[C@H](n5cc6cc(NC(=O)c7cccc(C(C)(C)F)n7)c(C(F)F)cc6n5)CC4)CC3)c21` (stereo partly shown) [I-103]: the DC50 was in the range of 50 to 100 nM.

On to `Cn1c(=O)n(C2CCC(=O)NC2=O)c2cccc(C3CN(C[C@H]4CC[C@H](n5cc6cc(NC(=O)c7cccc(C(F)(F)F)n7)c(C(F)F)cc6n5)CC4)C3)c21` (stereo partly shown) [I-104], for which the DC50 lay in the range of 50 to 100 nM.

`Cn1c(=O)n(C2CCC(=O)NC2=O)c2cccc(CCC3CC4(CCN(C[C@H]5CC[C@H](n6cc7cc(NC(=O)c8cnn9cccnc89)c(C(C)(C)O)cc7n6)CC5)CC4)C3)c21` (stereo partly shown) [I-105]: the DC50 was below 50 nM.

On to `CN(C[C@H]1CC[C@H](n2cc3cc(NC(=O)c4cccc(C(F)(F)F)n4)c(C(F)F)cc3n2)CC1)C1CCN(c2ccc3c(c2)n(C)c(=O)n3C2CCC(=O)NC2=O)CC1` (stereo partly shown) [I-106], for which the DC50 is below 50 nM.

Consider `COc1cc2nn([C@H]3CC[C@H](CN(C)C4CCN(c5ccc6c(c5)n(C)c(=O)n6C5CCC(=O)NC5=O)CC4)CC3)cc2cc1NC(=O)c1cccc(C(F)(F)F)n1` (stereo partly shown) [I-107], for which the DC50 was below 50 nM.

On to `Cn1c(=O)n(C2CCC(=O)NC2=O)c2cccc(CCC3CC4(CCN(C[C@H]5CC[C@H](n6cc7cc(NC(=O)c8cccc(OC(F)(F)F)n8)c(C(C)(C)O)cc7n6)CC5)CC4)C3)c21` (stereo partly shown) [I-108], for which the DC50 was in the range of 50 to 100 nM.

The assay is the same for the next values; noted with them: OCI-LY10 cells, 24 hrs incubation, read-out: IRAK4 degradation in OCI-LY10 at 24 hrs: DC50.
For the compound `COc1cc2nn([C@H]3CC[C@H](CN4CCO[C@@H](CCNc5cccc6c5C(=O)N(C5CCC(=O)NC5=O)C6=O)C4)CC3)cc2cc1NC(=O)c1cccc(C(F)(F)F)n1` (stereo partly shown) [I-71], the DC50 lay in the range of 50 to 100 nM.

As for `COc1cc2nn([C@H]3CC[C@H](CN(C)C4CCN(c5cccc6c5C(=O)N(C5CCC(=O)NC5=O)C6=O)CC4)CC3)cc2cc1NC(=O)c1cccc(C(F)(F)F)n1` (stereo partly shown) [I-76], the DC50 fell in the range of 100 to 500 nM.

As for `COc1cc2nn([C@H]3CC[C@H](CN(C)CCCO[C@H]4C[C@H](Nc5ccc6c(c5)C(=O)N(C5CCC(=O)NC5=O)C6=O)C4)CC3)cc2cc1NC(=O)c1cccc(C(F)(F)F)n1` (stereo partly shown) [I-77], the DC50 is 50 to 100 nM.

For the compound `COc1cc2nn([C@H]3CC[C@H](CN4CCC5(CC4)CC(Nc4cccc6c4C(=O)N(C4CCC(=O)NC4=O)C6=O)C5)CC3)cc2cc1NC(=O)c1cccc(C(C)(C)F)n1` (stereo partly shown) [I-78], the DC50 fell in the range of 50 to 100 nM.

As to `CN(CCCn1cc2cc(NC(=O)c3cccc(C(F)(F)F)n3)c(C(C)(C)O)cc2n1)C1CCC2(CC1)CC(Nc1cccc3c1C(=O)N(C1CCC(=O)NC1=O)C3=O)C2` (stereo not shown) [I-79], the DC50 lay within 100 to 500 nM.

Take `CC(C)(O)c1cc2c(cnn2CCN2CCC3(CC2)CC(CCNc2cccc4c2C(=O)N(C2CCC(=O)NC2=O)C4=O)C3)cc1NC(=O)c1cccc(C(F)(F)F)n1` (stereo not shown) [I-87]: the DC50 lay in the range of 500 to 1000 nM.

For `COc1cc2nn([C@H]3CC[C@H](CN4CCC5(CCC(Nc6cccc7c6C(=O)N(C6CCC(=O)NC6=O)C7=O)CC5)CC4)CC3)cc2cc1NC(=O)c1cccc(C(C)(C)F)n1` (stereo partly shown) [I-88], the DC50 lay in the range of 50 to 100 nM.

With `O=C1CCC(N2C(=O)c3cccc(NCCC4CC5(CCN(C[C@H]6CC[C@H](n7cc8cc(NC(=O)c9cccc(C(F)(F)F)n9)c(OC(F)F)cc8n7)CC6)CC5)C4)c3C2=O)C(=O)N1` (stereo partly shown) [I-89], the DC50 is 50 to 100 nM.

Turning to `COc1cc2nn([C@H]3CC[C@H](CN(C)[C@H]4CC[C@H](CNc5cccc6c5C(=O)N(C5CCC(=O)NC5=O)C6=O)CC4)CC3)cc2cc1NC(=O)c1cccc(C(C)(C)F)n1` (stereo partly shown) [I-90], the DC50 was 100 to 500 nM.

On to `COc1cc2nn([C@H]3CC[C@H](CN(C)CCCN4CCOC(CNc5cccc6c5C(=O)N(C5CCC(=O)NC5=O)C6=O)C4)CC3)cc2cc1NC(=O)c1cccc(C(C)(F)F)n1` (stereo partly shown) [I-91], for which the DC50 lay in the range of 50 to 100 nM.

As for `COc1cc2nn([C@H]3CC[C@H](CN4CCC5(CC4)CC(CCNc4cccc6c4C(=O)N(C4CCC(=O)NC4=O)C6=O)C5)CC3)cc2cc1NC(=O)c1cccc(C(C)(C)F)n1` (stereo partly shown) [I-92], the DC50 was 50 to 100 nM.

A word on the DC50: it is the concentration giving 50% degradation.
